Data taken from paper PMC9482650, “Quantitative fragmentomics allow affinity mapping of interactomes” (Nature Communications, 2022).
Ends that are not written are not given here.

What was measured:
[1] = target: T1, SNTG2 PDZ (Homo sapiens, UniProt Q9NY99); assay: Holdup assay; format: binding; settings: composite holdup affinity; 0.00=below quantification threshold; read-out: COMP pKd (converted)
T1 sequence (Q9NY99 73-156 limits assumed): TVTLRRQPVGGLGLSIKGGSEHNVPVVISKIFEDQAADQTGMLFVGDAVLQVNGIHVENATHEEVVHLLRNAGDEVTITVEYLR

[2] = target: T1, SNTG2 PDZ; assay: Competitive fluorescence polarization (FP) assay; format: binding; settings: read-out: pKd FP (converted)
[3] = tested on: HaCat cell extract preys; assay: PDZ-AP-MS, biotinylated MBP-PDZ baits; format: binding, human
Method in brief: (§1)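 Biotinylated His6-AviTag-MBP-PDZ baits, or MBP alone, saturated streptavidin resin and were then biotin-blocked. Each was incubated with 1 mg cell lysate for 2 h at 4 °C, washed, and eluted in 8 M urea. Eluates were digested with Lys-C/trypsin, run by nanoLC-MS/MS on an Orbitrap Elite (top20 CID) and searched against human SwissProt.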

[4] = tested on: HeLa cell extract preys; assay: PDZ-AP-MS, biotinylated MBP-PDZ baits; format: binding, human; settings: PDZ-AP-MS fold change of the PBM-protein prey
Method in brief: as §1

[5] = tested on: Jurkat cell extract preys; assay: PDZ-AP-MS, biotinylated MBP-PDZ baits; format: binding, human
Method in brief: as §1

[6] = target: DLG1_1/2; settings: SPR; ref Kim et al 1998; cited from earlier work
Text: Supplement 41467_2022_33018_MOESM4_ESM.xlsx, sheet "reference DMI interactome" | column: Affinity (mM); pKd, measured in literature

[7] = PDZ-AP-MS fold change of the PBM-protein prey, bait MBP-PDZ DLG1_1
[8] = PDZ-AP-MS fold change of the PBM-protein prey, bait MBP-PDZ DLG1_2
[9] = PDZ-AP-MS fold change of the PBM-protein prey, bait MBP-PDZ SCRIB_1
[10] = PDZ-AP-MS fold change of the PBM-protein prey, bait MBP-PDZ SCRIB_2
[11] = PDZ-AP-MS fold change of the PBM-protein prey, bait MBP-PDZ SNX27
[12] = PDZ-AP-MS fold change of the PBM-protein prey, bait MBP-PDZ TX1BP3
[13] = bait DLG1_1 PDZ, fold change of prey
[14] = bait DLG1_2 PDZ, fold change of prey
[15] = bait SCRIB_1 PDZ, fold change of prey
[16] = bait SCRIB_2 PDZ, fold change of prey
[17] = bait SNX27 PDZ, fold change of prey
[18] = bait TX1BP3 PDZ, fold change of prey

Compound: CC[C@H](C)[C@H](NC(=O)[C@H](CCC(N)=O)NC(=O)[C@@H](NC(=O)[C@H](Cc1c[nH]cn1)NC(=O)[C@H](CCC(N)=O)NC(=O)[C@H](CC(=O)O)NC(=O)[C@H](CCC(=O)O)NC(=O)[C@H](CC(=O)O)NC(=O)CCC(=O)NCCCOCCOCCOCCCNC(=O)CCCC[C@@H]1SC[C@@H]2NC(=O)N[C@@H]21)[C@@H](C)O)C(=O)N[C@H](C(=O)N[C@@H](CCCCNC(C)=O)C(=O)N[C@H](C(=O)O)C(C)C)[C@@H](C)O [PTEN_Ac]
- Kd [1]: 166 µM
- Kd [2]: 377 µM

Compound: SSLQSLETSV-OH [ATP2B4]
- Fold changes, HaCat, DLG1_1 [3, 7]: 6.858
- Fold changes, HaCat, DLG1_2 [3, 8]: 9.323
- Fold changes, HaCat, SCRIB_1 [3, 9]: 1.193
- Fold changes, HaCat, SCRIB_2 [3, 10]: 2.996
- Fold changes, HaCat, SNX27 [3, 11]: 25.0597
- Fold changes, HaCat, TX1BP3 [3, 12]: 1.007
- Ratio DLG1_1/MBP [3, 13]: 6.858
- Ratio DLG1_2/MBP [3, 14]: 9.323
- Ratio SCRIB_1/MBP [3, 15]: 1.193
- Ratio SCRIB_2/MBP [3, 16]: 2.996
- Ratio SNX27/MBP [3, 17]: 25.0597
- Ratio TX1BP3/MBP [3, 18]: 1.007
- Fold changes, HeLa, DLG1_1 ([4]; bait MBP-PDZ DLG1_1): 1.011
- Fold changes, HeLa, DLG1_2 ([4]; bait MBP-PDZ DLG1_2): 4.653
- Fold changes, HeLa, SCRIB_1 ([4]; bait MBP-PDZ SCRIB_1): 16.1327
- Fold changes, HeLa, SCRIB_2 ([4]; bait MBP-PDZ SCRIB_2): 1.595
- Fold changes, HeLa, SNX27 ([4]; bait MBP-PDZ SNX27): 14.9763
- Fold changes, HeLa, TX1BP3 ([4]; bait MBP-PDZ TX1BP3): 0.7931
- Fold changes, Jurkat, DLG1_1 [5, 7]: 3.92
- Fold changes, Jurkat, DLG1_2 [5, 8]: 17.9481
- Fold changes, Jurkat, SCRIB_1 [5, 9]: 13.9686
- Fold changes, Jurkat, SCRIB_2 [5, 10]: 1.428
- Fold changes, Jurkat, SNX27 [5, 11]: 34.2386
- Fold changes, Jurkat, TX1BP3 [5, 12]: 1.643
- Ratio DLG1_1/MBP [5, 13]: 3.92
- Difference log2 ([5]; bait DLG1_2 PDZ vs MBP, enrichment of prey): 4.166
- Ratio DLG1_2/MBP [5, 14]: 17.9481
- Ratio SCRIB_1/MBP [5, 15]: 13.9686
- Ratio SCRIB_2/MBP [5, 16]: 1.428
- Ratio SNX27/MBP [5, 17]: 34.2386
- Ratio TX1BP3/MBP [5, 18]: 1.643
- pKd, measured in literature [6]: 8.785
